From patent publication US20230286946A1, “DIFLUOROMETHYL-PYRIDIN-2-YL TRIAZOLES” (Boehringer Ingelheim International GmbH, priority 2020, published 2023)

Key:
[1] = molecular target: T1, human GABAA α5β3γ2s receptor (Homo sapiens, UniProt P18507+P31644); assay: Assay A: in vitro inhibition of 3H-flumazenil binding, HEK cells expressing the human GABAA α5β3γ2s receptor; conditions: read-out: Assay A: GABAA α 5 β 3 γ 2s Ki
T1 sequence (P18507 1-475): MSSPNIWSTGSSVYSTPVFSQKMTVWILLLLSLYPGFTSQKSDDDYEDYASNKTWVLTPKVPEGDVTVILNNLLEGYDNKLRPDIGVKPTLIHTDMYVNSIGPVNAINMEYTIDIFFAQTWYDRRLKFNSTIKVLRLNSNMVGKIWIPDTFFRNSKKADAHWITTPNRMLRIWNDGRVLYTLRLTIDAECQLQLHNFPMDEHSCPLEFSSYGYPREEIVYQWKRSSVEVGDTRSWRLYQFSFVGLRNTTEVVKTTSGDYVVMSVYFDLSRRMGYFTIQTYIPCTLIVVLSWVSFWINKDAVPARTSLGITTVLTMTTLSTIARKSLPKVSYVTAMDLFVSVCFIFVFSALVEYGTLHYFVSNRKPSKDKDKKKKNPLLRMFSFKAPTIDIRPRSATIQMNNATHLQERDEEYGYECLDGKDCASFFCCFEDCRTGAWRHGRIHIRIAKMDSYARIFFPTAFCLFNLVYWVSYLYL
T1 sequence (P31644 1-462): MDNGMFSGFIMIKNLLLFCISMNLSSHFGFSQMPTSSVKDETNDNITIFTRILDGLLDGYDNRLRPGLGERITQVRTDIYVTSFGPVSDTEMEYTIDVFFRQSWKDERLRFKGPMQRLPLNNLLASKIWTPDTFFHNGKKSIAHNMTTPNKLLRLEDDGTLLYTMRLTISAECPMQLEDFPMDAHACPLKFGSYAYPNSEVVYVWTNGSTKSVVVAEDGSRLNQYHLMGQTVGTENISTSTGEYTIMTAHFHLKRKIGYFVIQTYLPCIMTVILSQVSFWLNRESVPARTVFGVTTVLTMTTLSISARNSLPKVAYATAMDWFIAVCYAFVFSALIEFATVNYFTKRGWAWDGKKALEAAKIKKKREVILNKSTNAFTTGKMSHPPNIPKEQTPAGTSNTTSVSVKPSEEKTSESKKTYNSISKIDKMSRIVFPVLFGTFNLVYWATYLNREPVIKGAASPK
Description: Cell Cultures and Membrane Preparation
HEK-293 cell lines with stable expression of recombinant human GABAA α5ß3 γ2s receptors (plasmid H46/E9/B10) are seeded in T175 polystyrene flasks or roller bottles (1700 cm^2, Fisher Scientific CCI-431191), and cultured (37° C., 5% CO2) in Dulbecco's Modified Eagle Medium (DMEM) with GlutaMAX™ supplemented with 10% fetal bovine serum and one or both of the following antibiotics: hygromycin B ([…]; γ2 subunit) or G418 (0.5 mg/ml; […]).
When the cultures reach confluency, the DMEM is removed and the cells are washed (10 ml for T175 flasks; 50 ml for roller bottles) once in Dulbecco's Phosphate Buffered Saline (DPBS). Following addition of DPBS to the cultures (10 ml for T175 flasks; 100 ml for roller bottles) for approximately 5 min cells are easily detached from the surface by shaking or tapping the flask gently. The cell suspension is transferred to Falcon tubes and centrifuged at 23,500×g for 10 min at 2° C. The pellet is washed once in 15 ml Tris-citrate buffer (50 mM, pH 7.1) using an Ultra-Turrax homogenizer and centrifuged at 2° C. for 10 min at 27,000×g. The washed pellet is re-suspended in 15 ml Tris-citrate buffer and frozen at −80° C. until the day of the binding experiment.
On the day of the experiment the cell membrane preparation is thawed and centrifuged at 2° C. for 10 min at 27,000×g. The pellet is re-suspended, using an Ultra-Turrax homogenizer in Tris-citrate buffer, to 15-50 µg protein per assay and then used for binding assays.
Non-specific binding is determined using clonazepam ([…]).
All dilutions of test compounds and incubation of assay are performed in glass vials/96-vial plates. […] Compounds are dissolved in 100% DMSO (10 mM stock), diluted in 48% ethanol-water, and tested in triplicate in serial 1:3 or 1:10 dilutions. When screening large numbers of compounds only one concentration of each compound is tested in single wells. Reference compounds are not included routinely, but for each experiment performed total and nonspecific binding is compared to data obtained during validation of the assay.
Binding is either terminated by rapid filtration onto
1) Whatman GF/C glass fibre filters using a Brandel Cell harvester, followed by 5 washes with 1 ml ice-cold buffer or onto 2) UniFilter GF/C glass fibre filter plates using a Tomtec cell harvester, followed by washing with approximately 5 ml ice-cold buffer.
The amount of radioactivity on the filters is determined by conventional liquid scintillation counting using a
1) Tri-Garb™ counter (PerkinElmer Life and Analytical Sciences) for separate large filters or
2) Topcount™ counter (PerkinElmer Life and Analytical Sciences) for 96-well filter plates.
Specific binding is total binding minus non-specific binding.
The IC50 value for a test compound is determined based on the equation: […]
where B is the binding in percentage of total specific binding; C is the concentration of test compound; and n is the Hill coefficient. For screening purposes n is set to 1. The IC50 value is calculated from the concentration response curves by the non-linear regression method using the curve-fitting program GraphPad Prism.
The Ki value for a test compound can be calculated from the IC50 value using the equation by Cheng and Prusoff: […]

[2] = Metabolic stability in human liver microsomes (Human MST); type: in vitro ADME; conditions: pH 7.6, pooled human liver microsomes, 37° C., read-out: Human MST t½
Description: Assessment of Metabolic Stability in Human Liver Microsomes (Human MST) The metabolic stability of the compounds according to the invention may be investigated as follows: The metabolic degradation of the test compound is assayed at 37° C. with pooled human liver microsomes. The final incubation volume of 100 μL per time point contains TRIS buffer pH 7.6 at room temperature (0.1 M), MgCl2 (5 mM), microsomal protein (1 mg/mL) and the test compound at a final concentration of 1 μM. Following a short pre-incubation period at 37° C., the reactions are initiated by addition of beta-nicotinamide adenine dinucleotide phosphate, reduced form (NADPH, 1 mM), and terminated by transferring an aliquot into solvent after different time points. After centrifugation (10000 g, 5 min), an aliquot of the supernatant is assayed by LCMS/MS for the amount of parent compound. The half-life (t1/2) is determined by the slope of the semi-logarithmic plot of the concentration-time profile.

- Ki [1]: 13 nM
- half-life at 1 μM [2]: 1.68 h
SMILES: Cc1nnn(-c2ccc(C(F)F)cn2)c1COc1ccc(-c2cnn(C)c2C)nn1 [Example 9]
